Experimental data: US7452870B2, “Drug-eluting stents coated with P2Y12 receptor antagonist compound” (Inspire Pharmaceuticals, Inc., priority 2000, dated 2008)
Counter-ions that a name gives are not always drawn.

How the values were obtained:
[1] = tested on: washed platelet (ADP-induced aggregation; P2Y12 receptor); experiment: ADP-induced platelet aggregation, washed platelet preparation; assay type: cell-based; settings: Homo sapiens, inhibition of ADP-induced aggregation, washed platelets, average of at least two separate experiments
Procedure: Blood was collected from healthy volunteers into syringes containing ⅙ final blood volume of anti-coagulant ACD (65 mM citric acid, 85 mM sodium citrate, 110 mM dextrose) for washed platelet (WP) preparation or into a syringe containing a final concentration of 10 units/mL heparin or 300 μM PPACK for whole blood (WB) assays. The blood collected for whole blood assays was maintained at room temperature and immediately tested as described below. […] These centrifugations and washes were repeated twice following by resuspension in the media described above containing 0.25 U apyrase/mL. Platelet aggregation was measured using the optical mode of a CHRONOLOG® aggregometer (Havertown, Pa.). Five hundred μl of platelet suspension containing 1 mg/mL Fibrinogen were warmed to 37° C. and stirred at 1000 rpm. Indicated concentrations of ADP were added to the sample and aggregation was monitored for 8 minutes. […] For whole blood aggregation, blood was diluted 1:1 with saline and then aggregation was performed in the same manner as described above using the impedance mode of the aggregometer. The potency of agonists and inhibitors of platelet aggregation was calculated from both, the rate of aggregation and the maximal extent of aggregation obtained for each determination by fitting the data to a four-parameter logistic equation using the […]® software package (GraphPad Corp. San Diego, Calif.).
The ability of P2Y12 antagonists to inhibit platelet aggregation is presented in this application as the percent inhibition of the aggregation induced by a maximally effective concentration of ADP.
Data presented are from the average of at least two separate experiments.

P2Y6 = P2Y6 (Homo sapiens, UniProt Q15077); experiment: Calcium mobilization assay, P2Y6; assay type: cell-based; design: key: no response (NR); settings: activation of P2Y6 receptor;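 further: test compound added first then a maximal dose of the cognate agonist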
Sequence of P2Y6 (Q15077 whole entry, species assumed, the tested form may be a part): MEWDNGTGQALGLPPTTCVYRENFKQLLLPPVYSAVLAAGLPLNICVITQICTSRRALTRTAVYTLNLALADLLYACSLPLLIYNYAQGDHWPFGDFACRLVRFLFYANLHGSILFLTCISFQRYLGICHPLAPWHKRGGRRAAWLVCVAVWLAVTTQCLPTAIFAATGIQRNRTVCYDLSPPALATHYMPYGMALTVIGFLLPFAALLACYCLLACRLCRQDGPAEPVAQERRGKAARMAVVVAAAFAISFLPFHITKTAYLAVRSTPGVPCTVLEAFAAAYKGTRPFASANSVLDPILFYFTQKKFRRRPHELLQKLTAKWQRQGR

[2] = Plasma levels of test compound during and after IV infusion in dogs (LC/MS/MS); assay type: in vivo; settings: both sexes, beagle, dog, after the end of infusion, one-compartment model analysis, FIG. 5B
Procedure: (§1) Two weeks prior to the study, beagle dogs were implanted with jugular catheters and vascular access ports. Groups of four dogs (two of each sex) were fitted with jackets and connected to ambulatory infusion pumps for drug administration.
(§2) The day of the study, dogs were treated with a continuous infusion of different concentrations of test compound (usually between 0.1 and 1.5 mg/kg/h) for 90 minutes at a rate of 3 mL/kg/h. Approximately 30 minutes and 15 minutes prior to the start of infusion (predose samples), at different times during each infusion period (usually 10, 30, 60, and 90 minutes), and after the termination of the infusion (usually 5, 10, 20, 30, 40, 60, 120, and 240 minutes and 18, 20, 22, and 24 hours), blood was withdrawn from a cephalic vein catheter for the assessment of ex-vivo whole blood platelet aggregation assays and/or for bioanalytical determination of the plasma levels of the test compound. Platelet aggregation was estimated using the impedance mode of a CHRONOLOG® aggregometer as described in Example 24, and the plasma levels of the test compound were analyzed on an API 4000 LC/MS/MS system coupled with an Agilent 1100 series liquid chromatograph.
The pharmacological effect of the administration of the test compound correlated closely with the plasma levels of the compound. […]

[3] = tested on: platelet aggregation (platelet rich plasma); experiment: Ex-vivo ADP-induced platelet aggregation after intravenous administration in mice
Procedure: In order to evaluate the effects of inhibition of platelet aggregation in-vivo by the compounds described in this invention, experimental protocols similar to those described by Leon et al. (Circulation 103:718-723, 2001) were performed.
Anesthetized mice were injected intravenously with either saline or with different doses of trans-2′,3′-cinnamyl acetal-6N-ethylurea adenosine 5′-monophosphate, bis sodium salt (Compound 41), usually between 1 and 100 μg/kg. Five minutes after the administration of the compound, 700 μL of blood were obtained from each animal. The blood of two animals was combined and immediately processed to obtain platelet rich plasma for the assessment of platelet aggregation stimulated by 1 and 5 μM ADP. Platelet aggregation was measured using optical aggregometry as described in Example 21.
A key characteristic of the compounds described in this invention is the reversible nature of the inhibition of platelet aggregation. The model system described in Example 28 was also used to study the kinetics of in-vivo inhibition of platelet aggregation with selected compounds. Briefly, a maximally effective concentration of test compound was administered intravenously, and blood samples were obtained before and at different times (usually 0, 1, 5, 15 and 30 minutes) after the administration of trans-2′,3′-cinnamyl acetal-6N-ethylurea adenosine 5′-monophosphate, bis sodium salt (Compound 41). Blood samples were processed immediately and aggregation induced by 1 μM and 5 μM ADP was estimated as described in Example 31.

[4] = tested on: systemic intravascular thromboembolism; experiment: Thromboembolism-induced mortality (collagen and epinephrine) in mice; assay type: in vivo; settings: 25 mg/kg single IV bolus five minutes before 0.3 mg/kg collagen and 60 μg/kg epinephrine
Procedure: Ten anesthetized mice were treated with vehicle (control) or with a single bolus intravenous administration of test compound (usually between 10 and 25 mg/kg). Five minutes after treatment, the animals were injected with a mixture of 0.3 mg/kg collagen and 60 μg/kg epinephrine. The survival time after the administration of collagen and epinephrine in animals pretreated with saline or 25 mg/kg of the test compound 2′3′-(trans)cinnamyl acetal-6-N-ethylurea AMP (compound 41), are shown using the Kaplan-Meier plot in FIG. 3. Ninety percent of the vehicle-pretreated animals died within 6 minutes after the IV injection of collagen and epinephrine.

P2Y1 = P2Y1 (Homo sapiens, UniProt P47900); experiment: Calcium mobilization assay, P2Y1; assay type: cell-based; design: key: no response (NR); settings: activation of P2Y1 receptor;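 further: test compound added first then a maximal dose of the cognate agonist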
Sequence of P2Y1 (P47900 whole entry): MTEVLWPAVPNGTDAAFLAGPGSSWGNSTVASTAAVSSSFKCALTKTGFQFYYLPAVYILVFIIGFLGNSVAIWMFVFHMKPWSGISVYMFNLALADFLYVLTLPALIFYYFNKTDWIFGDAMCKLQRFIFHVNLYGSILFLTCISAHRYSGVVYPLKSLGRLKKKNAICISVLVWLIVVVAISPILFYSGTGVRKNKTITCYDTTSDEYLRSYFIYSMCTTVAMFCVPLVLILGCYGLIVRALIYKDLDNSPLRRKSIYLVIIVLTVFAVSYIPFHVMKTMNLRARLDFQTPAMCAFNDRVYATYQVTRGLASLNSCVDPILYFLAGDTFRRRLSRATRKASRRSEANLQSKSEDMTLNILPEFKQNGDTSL

P2Y2 = P2Y2 (Homo sapiens, UniProt P41231); experiment: Calcium mobilization assay, P2Y2; assay type: cell-based; design: key: no response (NR); settings: activation of P2Y2 receptor;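 further: test compound added first then a maximal dose of the cognate agonist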
Sequence of P2Y2 (P41231 whole entry, species assumed): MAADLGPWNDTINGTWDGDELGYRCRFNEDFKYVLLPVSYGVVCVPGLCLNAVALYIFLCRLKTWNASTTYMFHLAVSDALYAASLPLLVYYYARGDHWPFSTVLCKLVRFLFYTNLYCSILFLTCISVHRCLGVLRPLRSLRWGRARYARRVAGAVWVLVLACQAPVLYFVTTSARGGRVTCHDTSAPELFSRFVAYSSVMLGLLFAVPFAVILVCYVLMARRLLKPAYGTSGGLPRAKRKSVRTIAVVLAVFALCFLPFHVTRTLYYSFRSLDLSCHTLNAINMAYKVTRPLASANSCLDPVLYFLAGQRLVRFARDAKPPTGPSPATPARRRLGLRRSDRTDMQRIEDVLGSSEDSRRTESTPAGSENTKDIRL

P2Y4 = P2Y4 (Homo sapiens, UniProt P51582); experiment: Calcium mobilization assay, P2Y4; assay type: cell-based; design: key: no response (NR); settings: activation of P2Y4 receptor;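 further: test compound added first then a maximal dose of the cognate agonist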
Sequence of P2Y4 (P51582 whole entry, species assumed, the tested form may be a part): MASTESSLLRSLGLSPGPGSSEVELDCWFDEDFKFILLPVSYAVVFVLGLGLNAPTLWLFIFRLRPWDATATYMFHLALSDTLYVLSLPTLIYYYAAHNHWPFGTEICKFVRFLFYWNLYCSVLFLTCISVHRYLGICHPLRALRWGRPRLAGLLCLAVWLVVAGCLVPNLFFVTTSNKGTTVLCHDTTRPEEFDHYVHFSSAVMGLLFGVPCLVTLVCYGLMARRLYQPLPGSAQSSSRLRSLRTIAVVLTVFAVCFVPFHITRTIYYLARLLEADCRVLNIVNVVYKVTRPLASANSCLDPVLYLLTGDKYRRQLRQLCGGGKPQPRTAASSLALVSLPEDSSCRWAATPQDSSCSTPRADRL

[5] = tested on: whole blood platelet aggregation; experiment: Ex-vivo whole blood platelet aggregation during and after continuous IV infusion in dogs; design: species or system beagle dogs
Procedure: as §1, §2

[6] = tested on: platelets (ADP-induced aggregation); experiment: Inhibition of ADP-induced platelet aggregation at 100 μM (FIG. 1); assay type: cell-based, human; settings: 100 μM compound
Procedure: Blood was collected from healthy volunteers into syringes containing ⅙ final blood volume of anti-coagulant ACD (65 mM citric acid, 85 mM sodium citrate, 110 mM dextrose) for washed platelet (WP) preparation or into a syringe containing a final concentration of 10 units/mL heparin or 300 μM PPACK for whole blood (WB) assays. The blood collected for whole blood assays was maintained at room temperature and immediately tested as described below. The blood collected for WP was centrifuged at 180 g for 15 minutes and the supernatant (platelet rich plasma) was removed. The platelet rich plasma was centrifuged and the platelets were pelleted and resuspended in a buffer consisting of (mM): NaCl (137), KCl (2.7), CaCl2 (2) MgCl2 (1), NaH2PO4 (3), Glucose (5), HEPES (10), pH 7.4, 0.2% BSA. These centrifugations and washes were repeated twice following by resuspension in the media described above containing 0.25 U apyrase/mL. Platelet aggregation was measured using the optical mode of a CHRONOLOG® aggregometer (Havertown, Pa.). Five hundred μl of platelet suspension containing 1 mg/mL Fibrinogen were warmed to 37° C. and stirred at 1000 rpm. Indicated concentrations of ADP were added to the sample and aggregation was monitored for 8 minutes. The effect of the compounds described in this invention were studied following the same protocol with the exception that the inhibitor was incubated for 2-5 minutes prior to the addition of a maximally effective concentration of ADP. For whole blood aggregation, blood was diluted 1:1 with saline and then aggregation was performed in the same manner as described above using the impedance mode of the aggregometer. The potency of agonists and inhibitors of platelet aggregation was calculated from both, the rate of aggregation and the maximal extent of aggregation obtained for each determination by fitting the data to a four-parameter logistic equation using the […]® software package (GraphPad Corp. San Diego, Calif.).
The ability of P2Y12 antagonists to inhibit platelet aggregation is presented in this application as the percent inhibition of the aggregation induced by a maximally effective concentration of ADP. When a broad range of concentrations of P2Y12 antagonist was tested (usually from 1 nM to 100 μM), an IC50 value was also obtained.
Different compounds were tested for their inhibition of ADP-induced aggregation and their IC50 according to the protocols in Example 19; the results are shown in FIG. 1. The bar graphs in the figure illustrate the effect of 100 μM concentration of the compound on ADP-induced platelet aggregation, and the data are expressed as % inhibition of the ADP response.
Where hydrogens are understood to be present, they have been omitted for the sake of simplicity. […]

CCNC(=O)Nc1ncnc2c1ncn2[C@@H]1O[C@H](COP(=O)(O)O)C2O[C@H](/C=C/c3ccccc3)OC21 (stereo in doubt) [Compound 41, Phosphoric acid mono-{6-[6-(3-ethyl-ureido)-purin-9-yl]-2-styryl-tetrahydro-furo[3,4-d][1,3]dioxol-4-ylmethyl} ester bis sodium salt]
IC50 [1]: 13 ± 2 nM | Calcium Mobilization P2Y6 (P2Y6): NR | half-life [2]: ~7 min | inhibition of ADP-induced platelet aggregation five minutes after administration ([3]; intravenous maximally effective concentration, 1 μM and 5 μM ADP, 5 minutes): Complete inhibition | aggregation response to ADP by 30 minutes after administration ([3]; intravenous maximally effective concentration, 1 μM and 5 μM ADP, 30 minutes): returned to values similar to those observed in control animals | inhibition of platelet aggregation, dose dependence ([3]; intravenous, blood taken five minutes after administration, 1 and 5 μM ADP): dose-dependent inhibition | mortality resulting from systemic intravascular thromboembolism [4]: 20% | Calcium Mobilization P2Y1 (P2Y1): NR | Calcium Mobilization P2Y2 (P2Y2): NR | Calcium Mobilization P2Y4 (P2Y4): NR | restoration of platelet aggregation following termination of infusion ([5]; after end of IV infusion, FIG. 5A): nearly complete restoration of platelet aggregation within an hour | time at which the pharmacodynamic effect reached steady state ([5]; continuous IV infusion, FIG. 5A (0.3 mg/kg/h)): ≤ 30 min | infusion rate giving the maximal inhibitory effect on platelet aggregation ([5]; continuous intravenous infusion): 0.3 mg/kg/h | inhibition of platelet aggregation, dose dependence ([5]; continuous intravenous infusion for 90 minutes): dose-dependent inhibition

Nc1ccn([C@@H]2O[C@H](COP(=O)(O)OP(=O)(O)OP(=O)(O)OP(=O)(O)OC[C@H]3O[C@@H](n4ccc(=O)[nH]c4=O)[C@H](O)[C@@H]3O)[C@@H](O)[C@H]2O)c(=O)n1 [Cp4U, P^1-(cytidine 5′-)-P^4-(uridine 5′-) tetraphosphate]
inhibition of ADP-induced aggregation [6]: do not inhibit

O=c1ccn([C@@H]2O[C@H](COP(=O)(O)OP(=O)(O)OP(=O)(O)OP(=O)(O)OC[C@H]3O[C@@H](n4cnc5c(=O)[nH]cnc54)[C@H](O)[C@@H]3O)[C@@H](O)[C@H]2O)c(=O)[nH]1 [Ip4U]
inhibition of ADP-induced aggregation [6]: do not inhibit

O=c1ccn([C@@H]2O[C@H](COP(=O)(O)OP(=O)(O)OP(=O)(O)OC[C@@H]3O[C@@H](n4ccc(=O)[nH]c4=O)C(O)[C@@H]3O)[C@H](O)C2O)c(=O)[nH]1 (stereo partly drawn) [Up3U, P^1,P^3-Di(uridine 5′-) triphosphate]
inhibition of ADP-induced aggregation [6]: do not inhibit

O=c1ccn([C@@H]2O[C@H](COP(=O)(O)OP(=O)(O)OP(=O)(O)OP(=O)(O)OC[C@H]3O[C@@H](n4ccc(=O)[nH]c4=O)[C@H](O)[C@@H]3O)[C@@H](O)[C@H]2O)c(=O)[nH]1 [Up4U]
inhibition of ADP-induced aggregation [6]: do not inhibit
